Assay results from PubChem BioAssay (NCI).
Several values for one entry are separate records, joined by “and”; a condition that tells them apart may be missing. Equal entries are not always repeated.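 The compound was tested at five concentrations on cells cultured in 96-well plates, with a 48-hour exposure period. GI50: concentration for 50% inhibition of growth. TGI marks complete inhibition of growth.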

Columns and labels:
Assay in all cases: growth of human tumour cells (NCI), 48 h
U251 CNS = test system: U251 CNS
786-0 renal = test system: 786-0 renal
SK-MEL-28 melanoma = test system: SK-MEL-28 melanoma
HOP-92 NSCLC = test system: HOP-92 NSCLC
MDA-MB-231 breast = test system: MDA-MB-231 breast
LOX IMVI melanoma = test system: LOX IMVI melanoma
A549 NSCLC = test system: A549 NSCLC
HL-60(TB) leukemia = test system: HL-60(TB) leukemia
SK-MEL-2 melanoma = test system: SK-MEL-2 melanoma

Structure (SMILES) | TGI (U251 CNS) | TGI (786-0 renal) | TGI (SK-MEL-28 melanoma) | TGI (HOP-92 NSCLC) | TGI (MDA-MB-231 breast) | TGI (LOX IMVI melanoma) | TGI (A549 NSCLC) | TGI (HL-60(TB) leukemia) | TGI (SK-MEL-2 melanoma) | GI50 (U251 CNS) | GI50 (HOP-92 NSCLC)
COC(=O)C1=Nc2c(C)nn(-c3ccccc3)c2N=C(c2ccccc2)C1 | > 10 µM | > 10 µM | > 10 µM | > 10 µM | > 10 µM | > 10 µM | > 10 µM | > 10 µM |  |  | 
CCC(C(=O)C(=O)OC)P1(=O)OC(C)(C)CN1C(C)(C)C (stereo unspecified) | > 100 µM | > 100 µM | > 100 µM |  | > 100 µM | > 100 µM | > 100 µM |  | > 100 µM |  | 
COc1cc2c(cc1Cc1c(F)cccc1Cl)nc(-c1c(F)cccc1Cl)n2Cc1c(F)cccc1Cl | > 100 µM | 64.2 µM | > 100 µM | 37.6 µM | > 100 µM |  | > 100 µM | > 100 µM | 47.5 µM |  | 
CCOC(=O)/C(O)=C1\C(=O)N(C)C(=O)C1c1cccc(OC)c1 (stereo unspecified) | > 100 µM |  | > 100 µM | > 100 µM |  | > 100 µM | > 100 µM | > 100 µM | > 100 µM |  | 
O=C(Nc1noc(-c2ccccc2)n1)c1ccccc1CNc1noc(-c2ccccc2)n1 | > 100 µM | > 100 µM | > 100 µM | > 100 µM | > 100 µM | > 100 µM | > 100 µM | > 100 µM |  |  | 
CC(=O)OC1CCC2C3CCc4c(C)ccc(OS(=O)(=O)c5ccccc5)c4C3CCC12C (stereo unspecified) | > 100 µM | 36.9 µM | > 100 µM | 37.9 µM | > 100 µM | > 100 µM |  | > 100 µM | > 100 µM |  | 
C1=C\SS/C=C\SS/1 | > 100 µM | 35.8 µM | > 100 µM | 97.3 µM |  | > 100 µM | > 100 µM | 35.4 µM | > 100 µM |  | 
O=c1cc(-c2cc(O)c(O)c(-c3c(O)cc4oc(-c5ccc(O)c(O)c5)cc(=O)c4c3O)c2)oc2cc(O)cc(O)c12 | > 25 µM |  | > 25 µM | > 25 µM | > 25 µM | > 25 µM | > 25 µM | > 25 µM | > 25 µM |  | 
CC(C(=O)O)C(C)(O)C(=O)O (stereo unspecified) | > 100 µM | > 100 µM | > 100 µM |  | > 100 µM | > 100 µM | > 100 µM | > 100 µM | > 100 µM |  | 
CCOP(=O)(/C=C\n1ccc(N)nc1=O)OCC | > 100 µM | > 100 µM | > 100 µM |  | > 100 µM | > 100 µM | > 100 µM | > 100 µM | > 100 µM |  | 
OCc1ccc2c(c1)CC1(Cc3ccc(/C=N/O)cc3C1)C2 (stereo unspecified) | > 49.3 µM | > 100 µM | > 100 µM | 59.5 µM | > 100 µM | > 100 µM | > 100 µM |  | 42.3 µM |  | 
COCCOCCOC1=CC(=O)c2c(O)ccc(O)c2C1=O |  | 3.2 µM | 2.92 µM | 3.71 µM | 2.83 µM | 3.11 µM | 3.38 µM | 2.52 µM | 3.47 µM |  | 
CCCSc1nc(-c2ccc(OC)cc2)c(C#N)c(=O)n1C1OC(COC(C)=O)C(OC(C)=O)C(OC(C)=O)C1OC(C)=O (stereo unspecified) | > 100 µM and 34.2 µM |  | > 100 µM | > 100 µM and 93.7 µM |  |  |  | > 100 µM | > 100 µM | > 100 µM and 17.9 µM | > 100 µM and 28.2 µM
